This note sets out measurements from patent US20230091225A1, “Bifunctional chimeric heterocyclic compounds for targeted degradation of androgen receptors and use thereof” (HINOVA PHARMACEUTICALS INC., priority 2019, published 2023).

The target of this experiment is T1, androgen receptor (AR) (Homo sapiens, UniProt P10275).
T1 sequence (P10275 1-920): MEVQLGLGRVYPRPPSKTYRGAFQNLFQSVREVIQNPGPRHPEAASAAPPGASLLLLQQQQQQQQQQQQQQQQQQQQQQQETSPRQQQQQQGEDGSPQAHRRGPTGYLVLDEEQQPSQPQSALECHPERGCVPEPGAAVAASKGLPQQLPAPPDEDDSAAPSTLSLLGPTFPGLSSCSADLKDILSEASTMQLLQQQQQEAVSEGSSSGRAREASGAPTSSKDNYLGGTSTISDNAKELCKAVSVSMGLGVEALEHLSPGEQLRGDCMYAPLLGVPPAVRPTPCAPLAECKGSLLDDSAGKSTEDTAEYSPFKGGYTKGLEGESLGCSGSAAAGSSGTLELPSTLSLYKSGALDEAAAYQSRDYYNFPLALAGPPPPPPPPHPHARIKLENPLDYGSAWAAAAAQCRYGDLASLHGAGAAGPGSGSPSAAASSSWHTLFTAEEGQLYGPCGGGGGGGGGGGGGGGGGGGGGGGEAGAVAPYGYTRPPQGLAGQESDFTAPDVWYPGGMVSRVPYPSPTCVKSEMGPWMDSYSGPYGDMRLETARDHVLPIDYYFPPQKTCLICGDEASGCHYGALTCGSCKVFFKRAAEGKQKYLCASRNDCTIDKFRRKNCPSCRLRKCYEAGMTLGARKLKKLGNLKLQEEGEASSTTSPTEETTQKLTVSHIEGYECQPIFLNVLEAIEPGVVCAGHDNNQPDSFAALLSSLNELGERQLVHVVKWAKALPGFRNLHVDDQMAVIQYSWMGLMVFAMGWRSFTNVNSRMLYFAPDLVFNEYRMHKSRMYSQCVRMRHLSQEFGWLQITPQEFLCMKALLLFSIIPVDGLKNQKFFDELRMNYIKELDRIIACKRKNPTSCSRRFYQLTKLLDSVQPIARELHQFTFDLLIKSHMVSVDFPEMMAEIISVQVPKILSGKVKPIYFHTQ
As to the kind of experiment: Degradation of androgen receptor (AR) protein in VCaP cells by ELISA. The format is cell-based. The settings on record: for Dmax: VCaP; for inhibition at 0.1 µM: percentage of degraded AR at 100 nM, read-out: % degradation. For orientation: ELISA stands for enzyme-linked immunosorbent assay.

The mark [1] stands for this setting: AR degradation, VCaP cells, 16 h, ELISA, Table 3-1, read-out: DC50.
Where [2] appears, read: AR degradation, VCaP cells, 16 h, ELISA, Table 3-1, read-out: Dmax (%).

Read-outs that look alike come from different tables or passages of the source.

For `N#Cc1ccc(O[C@H]2CC[C@H](NC(=O)c3ccc(N4CCC(CN5CCC6(CC5)CN(c5cc7c(cc5F)C(=O)N(C5CCC(=O)NC5=O)C7=O)C6)CC4)cc3)CC2)cc1Cl` (stereo partly shown) [Compound 191, N-((1r,4r)-4-(3-chloro-4-cyanophenoxy)cyclohexyl)-4-(4-((2-(2-(2,6-dioxopiperidin-3-yl)-6-fluoro-1,3-dioxoisoindolin-5-yl)-2,7-diazaspiro[3.5]nonan-7-yl)methyl)piperidin-1-yl)benzamide], under setting [1], the DC50 is under 10 nM. Further, the Dmax under setting [2] is over 80%. For `N#Cc1ccc(O[C@H]2CC[C@H](NC(=O)c3ccc(N4CCC(CN5CCC6(CC5)CN(c5ccc7c(c5)C(=O)N(C5CCC(=O)NC5=O)C7=O)C6)CC4)cc3)CC2)cc1Cl` (stereo partly shown) [Compound 192] the same measures were under 10 nM and over 80%. For the compound `N#Cc1ccc(O[C@H]2CC[C@H](NC(=O)c3nnc(N4CC5(CCN(C6CCN(c7ccc8c(c7)C(=O)N(C7CCC(=O)NC7=O)C8=O)CC6)CC5)C4)s3)CC2)cc1Cl` (stereo partly shown) [Compound 193, N-((1r,4r)-4-(3-chloro-4-cyanophenoxy)cyclohexyl)-5-(7-(1-(2-(2,6-dioxopiperidin-3-yl)-1,3-dioxoisoindolin-5-yl)piperidine-4-yl)-2,7-diazaspiro[3.5]nonan-2-yl)-1,3,4-thiadiazole-2-carboxamide], the 50% degradation concentration (DC50) under setting [1] is under 10 nM. For the same compound, the Dmax under setting [2] is over 80%. In the same order, the values of `N#Cc1ccc(O[C@H]2CC[C@H](NC(=O)c3ccc(N4CC5(CCN(CC6CCN(c7ccc8c(c7)C(=O)N(C7CCC(=O)NC7=O)C8=O)CC6)CC5)C4)cc3)CC2)cc1Cl` (stereo partly shown) [Compound 194, N-((1r,4r)-4-(3-chloro-4-cyanophenoxy)cyclohexyl)-4-(7-((1-(2-(2,6-dioxopiperidin-3-yl)-1,3-dioxoisoindolin-5-yl)piperidine-4-yl)methyl)-2,7-diazaspiro[3.5]nonan-2-yl)benzamide] are under 10 nM and over 80%.

Regarding `N#Cc1ccc(OC2CCC(NC(=O)c3ccc(N4CCC(CN5CCC6(CC5)CN(c5ccc7c(c5)CN(C5CCC(=O)NC5=O)C7=O)C6)CC4)nn3)CC2)cc1Cl` (stereo not shown) [Compound 196, N-((1r,4r)-4-(3-chloro-4-cyanophenoxy)cyclohexyl)-6-(4-((2-(2-(2,6-dioxopiperidin-3-yl)-1-oxoisoindolin-5-yl)-2,7-diazaspiro[3.5]nonan-7-yl)methyl)piperidin-1-yl)pyridazine-3-formamide], the “Dmax (%)” value (AR degradation, VCaP cells, 16 h, ELISA, Table 3-1) is reported as “++++ (>80%)”. For the same compound, under setting [1], the DC50 is under 10 nM. Regarding `[2H]C([2H])([2H])Oc1cc(O[C@H]2CC[C@H](NC(=O)c3cnc(N4CCC(CN5CCC6(CC5)CN(c5ccc7c(c5)C(=O)N(C5CCC(=O)NC5=O)C7=O)C6)CC4)nn3)CC2)ccc1C#N` (stereo partly shown) [Compound 197, N-((1r,4r)-4-(4-cyano-3-(methoxy-d3)phenoxy)cyclohexyl)-3-(4-((2-(2-(2,6-dioxopiperidin-3-yl)-1,3-dioxoisoindolin-5-yl)-2,7-diazaspiro[3.5]nonan-7-yl)methyl)piperidin-1-yl)-1,2,4-triazine-6-carboxamide], where the note is “VCaP cells, 16 h, ELISA”, the inhibition at 0.1 µM is over 80%. On to `CC1(C)[C@H](Oc2ccc(C#N)c(Cl)c2)C(C)(C)[C@H]1N1Cc2nc(N3CCC(CN4CCN(c5cc6c(cc5F)C(=O)N(C5CCC(=O)NC5=O)C6)CC4)CC3)ccc2C1=O` (stereo partly shown) [Compound 206], for which, where the note is “VCaP cells, 16 h, ELISA”, the inhibition at 0.1 µM fell in the range of 25 to 49%. In the case of `CC1(C)C(Oc2ccc(C#N)c(Cl)c2)C(C)(C)C1N1Cc2nc(N3CCC(CN4CCN(c5cc6c(cc5F)C(=O)N([C@@H]5CCC(=O)NC5=O)C6)CC4)CC3)ccc2C1=O` (stereo partly shown) [Compound 212], the “% degradation” value is recorded as “C (key: A: >80%; B: 79%-50%; C: 49%-25%; D: <25%)”. Regarding `N#Cc1ccc(O[C@H]2CC[C@H](NC(=O)c3cnc(N4CCC(CN5CCC6(CC5)CN(c5cc7c(cc5F)C(=O)N(C5CCC(=O)NC5=O)C7=O)C6)CC4)cn3)CC2)cc1Cl` (stereo partly shown) [Compound 233], the DC50 under setting [1] was under 10 nM. The Dmax under setting [2] is over 80%. For `N#Cc1ccc(OC2CCC(NC(=O)c3cnc(N4CCC(CN5CC6(CCN(c7cc8c(cc7F)C(=O)N(C7CCC(=O)NC7=O)C8=O)CC6)C5)CC4)cn3)CC2)cc1Cl` (stereo not shown) [Compound 234, N-((1r,4r)-4-(3-chloro-4-cyanophenoxy)cyclohexyl)-5-(4-((7-(2,6-dioxopiperidin-3-yl)-6-fluoro-1,3-dioxoisoindolin-5-yl)-2,7-diazaspiro[3.5]nonan-2-yl)methyl)piperidin-1-yl)pyrazine-2-carboxamide], under setting [1], the DC50 was under 10 nM. Under setting [2], the Dmax is over 80%. As to `N#Cc1ccc(OC2CCC(NC(=O)c3cnc(N4CC5(CCN(CC6CCN(c7cc8c(cc7F)C(=O)N(C7CCC(=O)NC7=O)C8=O)CC6)CC5)C4)cn3)CC2)cc1Cl` (stereo not shown) [Compound 235, N-((1r,4r)-4-(3-chloro-4-cyanophenoxy)cyclohexyl)-5-(7-((1-(2-(2,6-dioxopiperidin-3-yl)-6-fluoro-1,3-dioxoisoindolin-5-yl)piperidine-4-yl)methyl)-2,7-diazaspiro[3.5]nonan-2-yl)pyrazine-2-carboxamide], the half-maximal degradation concentration (DC50) under setting [1] was under 10 nM. For the same compound, the greatest degradation seen (Dmax) under setting [2] was over 80%. As to `N#Cc1ccc(O[C@H]2CC[C@H](NC(=O)c3cnc(N4CCC(N5CC6(CCN(c7cc8c(cc7F)C(=O)N(C7CCC(=O)NC7=O)C8=O)CC6)C5)CC4)cn3)CC2)cc1C(F)(F)F` (stereo partly shown) [Compound 236, N-((1r,4r)-4-(4-cyano-3-(trifluoromethyl)phenoxy)cyclohexyl)-5-(4-(7-(2-(2,6-dioxopiperidin-3-yl)-6-fluoro-1,3-dioxoisoindolin-5-yl)-2,7-diazaspiro[3.5]nonan-2-yl)piperidin-1-yl)pyrazine-2-carboxamide], the half-maximal degradation concentration (DC50) under setting [1] was under 10 nM. The Dmax under setting [2] was over 80%. For `N#Cc1ccc(O[C@H]2CC[C@H](NC(=O)c3ccc(N4CC5CC4CN5C[C@H]4[C@@H]5CN(c6cc7c(cc6F)C(=O)N(C6CCC(=O)NC6=O)C7=O)C[C@@H]54)nn3)CC2)cc1Cl` (stereo partly shown) [Compound 237] the same measures were 100 to 300 nM and 40 to 60%.

Take `N#Cc1ccc(O[C@H]2CC[C@H](NC(=O)c3cnc(N4CC5CC4CN5C[C@H]4[C@@H]5CN(c6cc7c(cc6F)C(=O)N(C6CCC(=O)NC6=O)C7=O)C[C@@H]54)cn3)CC2)cc1Cl` (stereo partly shown) [Compound 238]: the DC50 under setting [1] was in the range of 10 to 100 nM. The maximal degradation (Dmax) under setting [2] lay in the range of 40 to 60%. Take `N#Cc1ccc(O[C@H]2CC[C@H](NC(=O)c3ccc(N4C[C@H]5CC[C@@H](C4)N5C[C@H]4[C@@H]5CN(c6cc7c(cc6F)C(=O)N(C6CCC(=O)NC6=O)C7=O)C[C@@H]54)nn3)CC2)cc1Cl` (stereo partly shown) [Compound 239]: the DC50 lay in the range of 10 to 100 nM and the maximal degradation (Dmax) was 60 to 80%. For `N#Cc1ccc(OC2CCC(NC(=O)c3cnc(N4C[C@H]5CC[C@@H](C4)N5C[C@H]4[C@@H]5CN(c6cc7c(cc6F)C(=O)N(C6CCC(=O)NC6=O)C7=O)C[C@@H]54)cn3)CC2)cc1Cl` (stereo partly shown) [Compound 240] the same measures were 10 to 100 nM and 60 to 80%. For `N#Cc1ccc(O[C@H]2CC[C@H](NC(=O)c3cnc(N4CCC(CN5CCC6(CC5)CN(c5ccc7c(c5)C(=O)N(C5CCC(=O)NC5=O)C7=O)C6)CC4)cn3)CC2)cc1Cl` (stereo partly shown) [Compound 241, N-((1r,4r)-4-(3-chloro-4-cyanophenoxy)cyclohexyl)-6-(4-((2-(2-(2-,2,6-dioxopiperidin-3-yl)-1,3-dioxoisoindolin-5-yl)-2,7-diazaspiro[3.5]nonan-7-yl)methyl)piperidin-1-yl)pyrazine-3-carboxamide] the same measures were under 10 nM and over 80%.

In the case of `N#Cc1ccc(O[C@H]2CC[C@H](NC(=O)c3cnc(N4CC5(CCN(C6CCN(c7cc8c(cc7F)C(=O)N(C7CCC(=O)NC7=O)C8=O)CC6)CC5)C4)cn3)CC2)cc1Cl` (stereo partly shown) [Compound 242, N-((1r,4r)-4-(3-chloro-4-cyanophenoxy)cyclohexyl)-5-(7-(1-(2-(2,6-dioxopiperidin-3-yl)-6-fluoro-1,3-dioxoisoindolin-5-yl)piperidine-4-yl)-2,7-diazaspiro[3.5]nonan-2-yl)pyrazine-2-carboxamide], the DC50 under setting [1] is under 10 nM. In addition, under setting [2], the Dmax is over 80%. Take `N#Cc1ccc(O[C@H]2CC[C@H](NC(=O)c3nnc(N4CCC(CN5CCC6(CC5)CN(c5ccc7c(c5)C(=O)N(C5CCC(=O)NC5=O)C7=O)C6)CC4)s3)CC2)cc1Cl` (stereo partly shown) [Compound 243]: the DC50 was under 10 nM and the maximal degradation (Dmax) was over 80%. Consider `N#Cc1ccc(O[C@H]2CC[C@H](NC(=O)c3nnc(N4CCC(CN5CCC6(CC5)CN(c5cc7c(cc5F)C(=O)N(C5CCC(=O)NC5=O)C7=O)C6)CC4)s3)CC2)cc1Cl` (stereo partly shown) [Compound 244], for which the Dmax was over 80%. Further, under setting [1], the DC50 was under 10 nM.

Broadly, the DC50 is the concentration at which degradation of the target reaches its halfway point. In general, Dmax refers to the greatest extent of degradation seen.
